Measured values from patent publication US20230285353A1, “A CHEMICAL COCKTAIL DRIVING EXPANSION OF MYOGENIC STEM CELLS” (The Regents of the University of California, priority 2020, published 2023).

Tested on: neonatal dermal fibroblast-like cells
Assay: Screening small-molecules for myogenic induction (TnT+ cells)
Type: cell-based, mouse
Details: for induction of myogenic cells, factor added individually to FR: basic medium with 20 μM F and R, bFGF 50 ng/ml or AA 50 μg/ml
Experimental: The next day the original medium was replaced with a screening medium containing small-molecule cocktails: KnockOut DMEM (Thermo Fisher Scientific), 10% knockout serum replacement (Thermo Fisher Scientific), 10% FBS (Hyclone, Inc.), 2 mM GlutaMAX (Thermo Fisher Scientific), 1% nonessential amino acids (Thermo Fisher Scientific), 1% penicillin-streptomycin (Thermo Fisher Scientific) and 20 ng/ml bFGF (Stemgent) containing the various small molecules, including valproic acid ([…]), tranylcypromine (T, 5 μM), forskolin (F, 10 μM), and 5-aza-2'deoxycytidine (5-Aza) (5-aza, 5 μM). The medium was changed once every 2-3 days. After optimizing the cocktail of small molecules and concentrations, the screening medium was replaced with Fb medium for further screening of additional candidates that may improve myogenic efficiency, including ascorbic acid (50 μg/ml, Sigma), BMP4 (20 ng/ml, Stemgent), Insulin (10 μg/ml, Stemgent), IGF-1 (50 ng/ml, R&D Systems), PDGF (50 ng/ml, R&D Systems), and bFGF (50 ng/ml, Stemgent Inc.). For cell immunostaining, cells were fixed in 4% paraformaldehyde for 15 minutes and permeabilized with 0.5% Triton-X 100 in PBS for 15 minutes. Cells were then blocked with 5% donkey serum for 1 hour and incubated overnight at 4° C. with primary antibodies (diluted in 5% donkey serum), including TnT (mouse mAb, DSHB), Myh1E (MF 20, mouse mAb, DSHB), Myh2 (SC-71, mouse mAb, DSHB), Myh3 (F1.652, mouse mAb, DSHB), Myh4 (BF-F3, mouse mAb, DSHB), Myh7 (BA-D5, mouse mAb, DSHB), Myh8 (Rabbit pAb, Thermo Fisher Scientific, PA5-72846), […]7) (dystrophin, mouse mAb, DSHB), MyoD (mouse mAb, DSHB), MyoG (mouse mAb, DSHB), Pax7 (mouse mAb, DSHB), Sox 10 (goat pAb, R&D Systems, AF2864), Ki 67 (rabbit mAb, Abcam, ab16667), FSP1 (rabbit mAb, Sigma, 07-2274), CD 90.2-FITC (rat mAb, Thermo Fisher Scientific, 11-0903-81), P75 (rabbit pAb, Abcam, ab8874) and PDGFR-α (rat mAb, Thermo Fisher Scientific, 13-1401-82). Then appropriate Alexa Fluor 488- or Alexa Fluor 546- or Alexa Fluor 647-conjugated secondary antibodies (Thermo Fisher Scientific) were used for 1 hour at room temperature.

Row | Molecule | induction of myogenic cells, factor added individually to FR | also measured
1 | Nc1ncn([C@H]2C[C@H](O)[C@@H](CO)O2)c(=O)n1 [5-Aza, 5-aza-2′deoxycytidine] | – | induction of TnT+ cells (5-Aza treatment of dermal cells): did not show any significant induction
2 | Cc1cccc(-c2[nH]ncc2-c2ccc3ncccc3n2)n1 [R, RepSox] | – | efficiency of CiMC expansion from dermal cells with single agent (F or R alone): almost negligible
3 | basic fibroblast growth factor [bFGF] | significantly enhanced | –
4 | O=C1O[C@H]([C@@H](O)CO)C(O)=C1O [AA, ascorbic acid] | significantly enhanced | –
